Experimental data: paper PMC9321718 (Pharmaceuticals, 2022)
Converted amounts (≈) assume the structure as drawn. “And” between values parts separate entries of the source, which are not always exact repeats. Equal entries are not always repeated. Where two headings read alike, the source gives them in different places.

Experiments:
B. subtilis (NCIB 8054) [1] = assay: Agar diffusion test, MIC; type: cell-based, Bacillus subtilis; conditions: B. subtilis; for antibacterial activity of CD complex: up to 3–5 mg/mL concentration; for MIC: agar diffusion test, LB pH 7.2, 37 °C, 20 h
Procedure: (§1) The strains used in this study were Escherichia coli (NCIB 12210) and Bacillus subtilis (NCIB 8054) from National Resource Center All-Russian collection of industrial microorganisms SIC “Kurchatov Institute”). The culture was cultivated for 18–20 h at 37 °C to CFU ≈ 5 × 10^6 – 8 × 10^6 (determined by A600) in liquid nutrient medium Luria–Bertani (pH 7.2): E. coli—without stirring, B. subtilis—with stirring 180 rpm.
(§2) The study of the antibacterial effect of Lev and adjuvants was carried out by (a) agar diffusion test and (b) broth micro-dilution method. (a) A measured 500 µL of 100-fold culture dilution was evenly distributed over a solid nutrient medium (LB, pH 7.2) on a Petri dish. After 20 min, agar disks with a diameter of 9 mm were removed from the cups and 50 µL of the test samples were placed in the formed wells at the required concentration in a sterile PBS buffer (see Section 3.3 (2)). After 30 min, Petri dishes were placed in a 37 °C thermostat. After 24 h, the diameters of the growth inhibition zones were measured. Minimum inhibitory concentrations (MICs) are determined as the infimum of multiple concentrations of an antimicrobial that inhibits the visible growth of a microorganism after overnight incubation. (b) According to the standard broth micro-dilution method, 200 µL of the overnight culture (5 × 10^6 CFU) was placed into a 96 micro-titer plate wells. Then 50 µL of tested samples was added. The range of tested Lev concentration was 4–200 ng/mL, adjuvants concentration was in the range of 0.008–2 mg/mL. Optical density measurements at 600 nm were taken at various times (0, 3, and 18 h) to determine the number of cells. The dependence of CFU (determined by A600) on the concentration of Lev, APAB or terpenoid (briefly X) was approximated according to the Boltzmann equation (Origin software): CFU = (control CFU)/(1 + exp(([X] − MIC50)/constant value)). MIC50 and MIC90 are defined as concentrations at which the inhibition of bacterial growth by 50 and 90% is noticeable, respectively. In other words, the concentration at which the ordinate value (CFU) is equal to 50 or 10% of the control sample minus the background.

E. coli = assay: Synergy of adjuvant-MCD with Lev-MCD, growth inhibition zones in agar; type: cell-based, Escherichia coli; conditions: E. coli; for D, diameter of bacterial inhibition zone surrounding Lev–MCD with APAB-MCD / ϕLev = (D/DLev)^2 / FICI: CLev 0.1 μg/mL; for D, diameter of bacterial inhibition zone surrounding Lev–MCD with APAB-MCD: Lev-MCD + X-MCD (1:2), ±0.5; for ϕLev = (D/DLev)^2: ±0.1; for FICI: ±15%
Procedure: We obtained complex formulations containing adjuvants-MCD and Lev-MCD. These complexes were referred to as enhanced Lev. The synergy effect was studied at a constant concentration of Lev and a variable concentration of an enhancer. […] Based on the D/DLev ratio, the effectiveness of cooperative antibacterial action (ϕ) of the adjuvant and Lev was calculated. The fractional inhibitory concentration (FIC) parameter was introduced: at a fixed Lev concentration, the FIC of adjuvant corresponds to the minimum fractional adjuvant concentration at which the antibacterial effect was still manifest (MICadjuvant in the presence of Lev). The fractional inhibitory concentration index (FICI) characterizes the ratio of the active Lev and adjuvant concentrations to the MIC values of these substances individually: FICI=[Lev]/MIC(Lev)[…][adjuvant]/MIC(adjuvant) (see Section 3).
The FICI was interpreted as: synergism (<0.35), additivity (0.35–0.75), indifference (0.75–1.4), or antagonism (>1.4). FICI is designed to determine the type of Lev interaction with adjuvants.
as §2, with “After 24 h, the diameters of the growth inhibition zones were measured.” left out, “Optical density measurements at 600 nm were taken at various times (0, 3, and 18 h) to determine the number of cells.” left out, “MIC50 and MIC90 are defined as concentrations at which the inhibition of bacterial growth by 50 and 90% is noticeable, respectively.” left out
The FICI was interpreted as: synergism (<0.35), additivity (0.35–0.75), indifference (0.76–1.4), or antagonism (>1.4). The essence of this expression is to calculate the average change in the effective concentration compared to MIC. Note that the most important parameter corresponds to a decrease in MIC of Lev. However, FICI is designed to determine the type of interaction Lev with adjuvants.

[2] = Formation of inclusion complexes with MCD (UV spectroscopy, Hill linearization); type: physicochemical; conditions: for EE, % / LC, % / n: MCD; for EE, % / LC, %: C(MCD) = 0.01 M, pH 6.2, 22 °C; for n: Xaq + n MCDaq ⇌ X·nMCDaq, 5 mM sodium phosphate buffer pH 6.2, 22 °C
Procedure: To optimize the system composition, similar experiments were carried out on the formation of EG and apiol inclusion complexes with HPCD (Figure S1). […] According to these changes, the dissociation constants of the EG–HPCD and apiol–HPCD complexes (Figure S2) were calculated by Hill’s equation (Table 1). […] The physicochemical parameters of the interaction of APAB and terpenoids (X) with CD were studied by determining the concentration of substances in the aqueous fraction ([APAB] + [APAB-MCD]) according to the calibration dependence (Figure 1C) for systems with a constant amount of the essential oil component X and the concentration gradient MCD (Table 1). Theta (θ) is a fraction of the bound substance X:θ = [X-MCD]/([X-MCD] + [X]) and was calculated based on the dependence of the absorption intensity X on the MCD concentration in the system in the form of a sigmoidal Hill curve with subsequent linearization (Section 3, Section 3.3 and Section 3.4).
The molar excess of CD varied from 0.04 to 10). Further, the complexes were incubated for 1 h at 37 °C and then centrifuged ([…], 15 min, Eppendorf tubes) to separate the insoluble fractions. Complexes were studied by UV and FTIR spectroscopy.
UV spectra of solutions (point 3.3.1) were recorded on the AmerSham Biosciences UltraSpec 2100 pro device (USA) three times in the range of 200–400 nm in a quartz cell Hellma 100–QS with an optical path of 1 cm. Background spectrum (5 mM sodium phosphate buffer (pH 6.2) with 50% EtOH) was subtracted as a blank.
(1) Calculation of the dissociation constants X–MCD and X–HPCD, where X is a “guest” compound, considering the equilibrium: Xaq + n MCDaq ↔ X·nMCDaq, where Kd = [MCDaq]^n · [Xaq]/[X·nMCDaq].
First, fitting of the curves of change of the analytical signal ξ (peak intensity or peak position) versus concentration of the MCD or HPCD or was carried out using the Hill equations: (1) ξ = ξ∞ · [MCD]^n/([MCD]^n + K^n), where ξ∞—horizontal asymptote; (2) ξ = ξ0 + (ξ∞–ξ0) · [MCD]^n/([MCD]^n + K^n). Second, calculation n and Kd values by Hill’s linearization in n-binding site model: lg (θ/(1 – θ)) = n · lg [L] – lg Kd, where θ = |(ξ – ξ0)/(ξ∞ − ξ0)|is a fraction of the bound substance. N in Hill equation—number of drug molecules per CD torus.
Calculations for the following items are performed when [MCD] = 0.01 M.

[3] = Solubility of X in water and in the presence of MCD/HPCD (UV absorbance); conditions: 22 °C, pH 6.2, water
Procedure: (§3) (3) Solubility of X in water C0 = [Xaq] = A/(ε · l) was determined by UV absorbance after centrifugation of samples (10 min, 10,000× g). l = 1 cm. ε—molar absorbance coefficient (Figure 1C).

E. coli (NCIB 12210) [4] = assay: Agar diffusion test, MIC; type: cell-based, Escherichia coli; conditions: for antibacterial activity of CD complex: up to 3–5 mg/mL concentration; for MIC: LB pH 7.2, 37 °C, 20 h
Procedure: as §1, §2

B. subtilis (NCIB 8054) [5] = assay: Broth micro-dilution method, MIC50/MIC90; type: cell-based; conditions: Bacillus subtilis, NCIB8054
Procedure: as §1
The study of the antibacterial effect of Lev and adjuvants was carried out by (a) agar diffusion test and (b) broth micro-dilution method. (a) A measured 500 µL of 100-fold culture dilution was evenly distributed over a solid nutrient medium (LB, pH 7.2) on a Petri dish. […] After 24 h, the diameters of the growth inhibition zones were measured. Minimum inhibitory concentrations (MICs) are determined as the infimum of multiple concentrations of an antimicrobial that inhibits the visible growth of a microorganism after overnight incubation. […] The dependence of CFU (determined by A600) on the concentration of Lev, APAB or terpenoid (briefly X) was approximated according to the Boltzmann equation (Origin software): CFU = (control CFU)/(1 + exp(([X] − MIC50)/constant value)). […]

E. coli (NCIB 12210) [6] = assay: Broth micro-dilution method, MIC50/MIC90; type: cell-based, Escherichia coli
Procedure: as §1
as §2, with “In other words, the concentration at which the ordinate value (CFU) is equal to 50 or 10% of the control sample minus the background.” left out

[7] = HPCD, cited from earlier work
[8] = MCD, cited from earlier work; for EE, %: C(MCD) = 0.01 M
physchem = conditions: 22 °C, pH 6.2, water
Procedure: as §3

[9] = Escherichia coli, NCIB12210, broth micro-dilution

Compound | antibacterial activity of CD complex (B. subtilis (NCIB 8054) [1]) | decrease of MICLev in the presence of adjuvant (E. coli) | D, diameter of bacterial inhibition zone surrounding Lev–MCD with APAB-MCD (E. coli) [mm] | ϕLev = (D/DLev)^2 (E. coli) | FICI (E. coli) | EE, % [2] [%] | LC, % [2] [%] | n [2] | antibacterial activity of CD complex (E. coli (NCIB 12210) [4]) | solubility (physchem) [µM] | also measured
C=CCc1cc(OC)c(OC)c(OC)c1OC [Allyltetramethoxybenzene] | inactive | 1.25–1.5 times | 12 | 1.1 | 0.50 | 45 ± 4 | 11 ± 1 | 1.74 ± 0.11 | inactive |  | solubility [3]: 160 ± 20 µM
C[C@H]1COc2c(N3CCN(C)CC3)c(F)cc3c(=O)c(C(=O)O)cn1c23 [Levofloxacin] |  |  |  |  |  |  |  |  |  |  | MIC (B. subtilis (NCIB 8054) [1]; listed as Lev): 0.45 ± 0.05 µg/mL (≈ 1.25 µM); MIC (B. subtilis (NCIB 8054) [1]; Bacillus subtilis, NCIB8054, read-out: MIC): 0.45 µg/mL (≈ 1.25 µM); MIC50 (B. subtilis (NCIB 8054) [5]): 0.03 ± 0.01 µg/mL (≈ 0.083 µM); MIC90 (B. subtilis (NCIB 8054) [5]): 0.08 ± 0.02 µg/mL (≈ 0.221 µM); MIC50 (E. coli (NCIB 12210) [6]; [9]): 0.01 ± 0.002 µg/mL (≈ 0.0277 µM); MIC90 (E. coli (NCIB 12210) [6]; [9]): 0.025 ± 0.004 µg/mL (≈ 0.0692 µM); improvement of the effect of Lev by MCD (E. coli (NCIB 12210) [6]; broth micro-dilution test): 30%; EE, % ([7]; 0.01 M): 91 ± 15%; LC, % [7]: 24.1 ± 0.5%; EE, % [8]: 99 ± 12%; EE, % ([8]; listed as Lev): more than 90%; LC, % [8]: 28.3 ± 0.4%; MIC (E. coli (NCIB 12210) [4]; Escherichia coli, NCIB12210, agar diffusion test, read-out: MIC): 0.1 µg/mL (≈ 0.277 µM); MIC (E. coli (NCIB 12210) [4]; agar diffusion test, listed as Lev): 0.10 µg/mL and 0.10 ± 0.01 µg/mL
C=CC(C)(O)CCC=C(C)C (centres unmarked) [Linalool] | inactive |  |  |  |  | 80 ± 7 | 10 ± 1 | 1.2 ± 0.2 | inactive | 300 ± 50 (≈ 46.3 µg/mL) | 
C=CCc1cc(OC)c2c(c1)OCO2 [Myristicin] | inactive | 1.25–1.5 times | 13.25 | 1.2 | 0.04 | 99 ± 5 | 22 ± 2 | 0.67 ± 0.06 | inactive | 30 ± 7 (≈ 5.77 µg/mL) | molar ratio APAB:CD of inclusion complexes [2]: 2 to 1; EE, % ([2]; listed as myristicin): more than 90%
C=CCc1cc2c(c(OC)c1OC)OCO2 [Dillapiol] |  | 1.25–1.5 times | 13.75 | 1.3 | 0.04 | 56 ± 10 | 13 ± 1 | 1.3 ± 0.2 |  | 240 ± 50 (≈ 53.3 µg/mL) | 
